“Also recorded” adds a separate entry of the source.

Holding throughout (assay type): physicochemical
Series [1] is described as follows: Example 2: purity and oxidation of coated hPTH after gamma irradiation or ethylene oxide sterilization; packaging and antioxidants varied (RP-HPLC, SEC-HPLC). The following applies: for degradation: glass vial. The protocol:
Formulations of hPTH(1-34) were prepared as set forth in Example 1, and coated on microprojection arrays. In addition to the standard 1:1 sucrose:hPTH formulations discussed above, the effect of antioxidants was assessed by adding to selected samples 5% w/w methionine or 3.3% w/w ascorbic acid. The coated arrays were placed in nitrogen purged heat-sealed foil pouches or glass vials. Also, one of the samples was subjected to ethylene oxide sterilization as a comparison. The remaining samples were subjected to dose of gamma radiation of either 7, 14 or 21 kGy under dry ice or an ambient temperature. As discussed above, the purity and degradation of the PTH formulations was assessed using RP-HPLC and SEC-HPLC.
(In general: SEC sorts molecules by how far they enter the pores of the column.)

Series [2] in a line: Example 4: purity of coated hPTH(1-34) after 15 kGy gamma or e-beam; desiccant, temperature and sucrose content varied (RP-HPLC, SEC-HPLC). The procedure:
In this example, formulations of hPTH(1-34) were prepared, comprising 20% w/w HPTH, 20% sucrose or 40% sucrose, 0.2% polysorbate 20 and 0.03% EDTA. The arrays were assembled with a polycarbonate retainer ring and an adhesive. The arrays were sealed in foil pouches purged with nitrogen. Certain samples included a 4 Å molecular seive desiccant. The arrays were exposed to 15 kGy of gamma or e-beam radiation at under dry ice, 2-8° C. or an ambient temperature. As discussed above, the purity and degradation of the PTH formulations was assessed using RP-HPLC and SEC-HPLC.

A short description of series [3]: Example 3: purity and oxidation of coated hPTH(1-34) after gamma irradiation; packaging, purge gas and temperature varied (RP-HPLC, SEC-HPLC). The procedure:
Formulations of hPTH(1-34) were prepared as set forth in Example 1, and coated on microprojection arrays. Certain arrays were assembled with a polycarbonate retainer ring and an adhesive. The arrays were sealed in foil pouches purged with nitrogen or ambient air or in glass vials. The arrays were exposed to 14 or 21 kGy of gamma radiation under dry ice or an ambient temperature. As discussed above, the purity and degradation of the PTH formulations was assessed using RP-HPLC and SEC-HPLC.

The nature of series [4]: Example 1: purity and degradation products of hPTH(1-34) coated microprojection arrays after gamma or e-beam irradiation (RP-HPLC and SEC-HPLC). The protocol:
Validation reverse-phase and size-exclusion high pressure liquid chromatography (RP-HPLC and SEC-HPLC, respectively) were used to quantify PTH oxidation resulting from exposure to the sterilizing radiation. Formulations of hPTH(1-34) were prepared, comprising 20% w/w HPTH, 20% sucrose, 0.2% polysorbate 20 and 0.03% EDTA. The PTH formulations were coated onto microprojection arrays, which were then enclosed in glass vials. The coated arrays were irradiated with 7, 14 or 21 kGy radiation doses, from either gamma radiation or e-beam, under dry ice or an ambient temperature. […] Tables 1 and 2 give the data corresponding to the purity and degradation products for gamma radiation and e-beam, respectively.

For the molecule `CC[C@H](C)[C@H](NC(=O)[C@H](CCC(=O)O)NC(=O)[C@H](CO)NC(=O)[C@@H](NC(=O)[C@@H](N)CO)C(C)C)C(=O)N[C@@H](CCC(N)=O)C(=O)N[C@@H](CC(C)C)C(=O)N[C@@H](CCSC)C(=O)N[C@@H](Cc1cnc[nH]1)C(=O)N[C@@H](CC(N)=O)C(=O)N[C@@H](CC(C)C)C(=O)NCC(=O)N[C@@H](CCCCN)C(=O)N[C@@H](Cc1cnc[nH]1)C(=O)N[C@@H](CC(C)C)C(=O)N[C@@H](CC(N)=O)C(=O)N[C@@H](CO)C(=O)N[C@@H](CCSC)C(=O)N[C@@H](CCC(=O)O)C(=O)N[C@@H](CCCN=C(N)N)C(=O)N[C@H](C(=O)N[C@@H](CCC(=O)O)C(=O)N[C@@H](Cc1c[nH]c2ccccc12)C(=O)N[C@@H](CC(C)C)C(=O)N[C@@H](CCCN=C(N)N)C(=O)N[C@@H](CCCCN)C(=O)N[C@@H](CCCCN)C(=O)N[C@@H](CC(C)C)C(=O)N[C@@H](CCC(N)=O)C(=O)N[C@@H](CC(=O)O)C(=O)N[C@H](C(=O)N[C@@H](Cc1cnc[nH]1)C(=O)N[C@@H](CC(N)=O)C(=O)N[C@@H](Cc1ccccc1)C(=O)O)C(C)C)C(C)C` [hPTH(1-34)], the “deamidation and aggregation degradation products” value in series [1] (FIG. 8) was “not prominent”. Further, the degradation entry in series [1] (ethylene oxide sterilization) is “considerable degradation; also recorded: severe”; in series [1] (gamma 21 kGy, ambient temperature, FIG. 8), “severe”; in series [2] (sample without a desiccant, 15 kGy, FIG. 13), “most degradation”. Further, the morphology result in series [1] (ethylene oxide sterilized sample) is recorded as “altered substantially”. Besides, the oxidation result in series [1] (gamma irradiated samples packaged in nitrogen purged foil pouches) is given as “minimal oxidation”; in series [3] (gamma 14 kGy, foil pouch sealed with ambient air, dry ice and ambient temperature, FIG. 11) it was “major oxidation”; in series [3] (gamma 21 kGy, ambient temperature, nitrogen purged glass vial, FIG. 10), “approximately 40%”. For the same molecule, the “purity of hPTH” value in series [1] (gamma radiation, samples other than 21 kGy glass vial ambient (foil pouch, dry ice, 7 or 14 kGy), FIG. 7) was “comparable to that of the controls”. Further, the “impact of amount of sucrose on stability during irradiation” value in series [2] (1:1 versus 2:1 sucrose:hPTH, gamma or e-beam, FIG. 15) was “did not have a significant impact”. Also, the “degradation, e-beam sterilization versus gamma irradiation” value in series [2] (15 kGy, same temperature, FIG. 13) is reported as “less degradation”. In addition, the stability following irradiation result in series [3] (arrays with polycarbonate retainer ring and acrylate adhesive, nitrogen purged foil pouch, 14 and 21 kGy, dry ice, FIG. 12) is given as “adequate stability”. In series [3] (gamma 14 kGy, nitrogen purged foil pouch, dry ice and ambient temperature, FIG. 11), the purity entry is listed as “comparable to the controls”. The increase in oxidation entry in series [3] (gamma 21 kGy, ambient temperature, nitrogen purged foil pouch, FIG. 10) is listed as “approximately 2%”. In addition, the “increase in overall oxidation” value is listed as “less than 4%” in series [3] (gamma 21 kGy, nitrogen purged foil pouch, ambient temperature) and “less than 2%” in series [3] (gamma 21 kGy, nitrogen purged foil pouch, dry ice). Also, in series [3] (gamma 21 kGy, nitrogen purged foil pouch, FIG. 9), the “loss in purity relative to the control” value was “did not suffer a significant loss in purity”. In series [4] (7 kGy under dry ice, compared with other doses and temperatures), the loss of purity entry is reported as “least loss of purity”. Moreover, the “degradation (oxidation)” value in series [4] (21 kGY dose, particularly at an ambient temperature) is listed as “less degradation”. The aggregation following irradiation result in series [4] (FIG. 6, gamma and e-beam, 7-21 kGy) is on record as “relatively low”. Moreover, in series [4] (at the high radiation doses), the “degradation, e-beam sterilization less than gamma radiation” value is 5-10%. Moreover, the “purity of PTH relative to a control formulation” value in series [4] (gamma radiation and e-beam exposure, FIG. 5) is on record as “decreased”. For the same molecule, in series [4] (irradiated formulations versus control formulation), the deamidated products result is “comparable to the control formulation”.

These data come from patent publication US20060275170A1, “Method for terminal sterilization of transdermal delivery devices” (priority 2005, published 2006).
